According to PMC4995024, “Ligand Binding at the α4-α4 Agonist-Binding Site of the α4β2 nAChR Triggers Receptor Activation through a Pre-Activated Conformational State” (PLoS ONE, 2016):
Values joined by “and” are separate entries in the source; they are usually repeats but may differ in a detail not shown here. Identical values can stand only once. “Also recorded” adds a separate entry of the source. Like-named read-outs stand apart in the source and are kept apart here. Marks after values point to notes of the source that are not given here.

Experiments:
3α4:2β2 nAChR [1] = biological target: T1, 3α4:2β2 nAChR (Homo sapiens, UniProt P17787+P43681); experiment: Two-electrode voltage-clamp electrophysiology in Xenopus oocytes, WT 3α4:2β2 receptor; format: cell-based; set-up: expressed in transfected cells; host or cells: Xenopus laevis oocytes injected with cRNA (α4:β2 ratio 4:1); settings: for Est Pomax: normalized to 1 mM ACh + NS206 (10 μM); for Decrease of EC50 value by co-application of NS9283 / Increase of maximum response by co-application of NS9283: 3α4:2β2, NS9283 10 μM; for Agonist type: 3α4:2β2, relative to saturating ACh (1 mM)
T1 sequence (P43681 29-627 limits assumed): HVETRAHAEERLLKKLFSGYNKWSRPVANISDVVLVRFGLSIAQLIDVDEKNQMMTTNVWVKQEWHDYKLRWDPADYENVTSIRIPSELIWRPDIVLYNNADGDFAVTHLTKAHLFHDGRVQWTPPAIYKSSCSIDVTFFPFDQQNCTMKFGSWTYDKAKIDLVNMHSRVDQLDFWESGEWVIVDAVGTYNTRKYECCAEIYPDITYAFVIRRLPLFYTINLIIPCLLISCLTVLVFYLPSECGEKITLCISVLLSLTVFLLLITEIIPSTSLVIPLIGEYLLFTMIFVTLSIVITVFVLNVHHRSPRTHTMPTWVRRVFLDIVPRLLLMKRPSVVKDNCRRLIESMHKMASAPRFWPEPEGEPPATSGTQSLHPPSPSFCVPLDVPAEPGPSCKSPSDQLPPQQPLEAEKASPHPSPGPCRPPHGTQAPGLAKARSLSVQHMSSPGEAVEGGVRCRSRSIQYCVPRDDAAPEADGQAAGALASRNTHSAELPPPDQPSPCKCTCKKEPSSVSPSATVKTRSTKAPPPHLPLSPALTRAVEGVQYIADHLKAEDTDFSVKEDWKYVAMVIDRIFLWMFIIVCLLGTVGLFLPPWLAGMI
T1 sequence (P17787 26-502): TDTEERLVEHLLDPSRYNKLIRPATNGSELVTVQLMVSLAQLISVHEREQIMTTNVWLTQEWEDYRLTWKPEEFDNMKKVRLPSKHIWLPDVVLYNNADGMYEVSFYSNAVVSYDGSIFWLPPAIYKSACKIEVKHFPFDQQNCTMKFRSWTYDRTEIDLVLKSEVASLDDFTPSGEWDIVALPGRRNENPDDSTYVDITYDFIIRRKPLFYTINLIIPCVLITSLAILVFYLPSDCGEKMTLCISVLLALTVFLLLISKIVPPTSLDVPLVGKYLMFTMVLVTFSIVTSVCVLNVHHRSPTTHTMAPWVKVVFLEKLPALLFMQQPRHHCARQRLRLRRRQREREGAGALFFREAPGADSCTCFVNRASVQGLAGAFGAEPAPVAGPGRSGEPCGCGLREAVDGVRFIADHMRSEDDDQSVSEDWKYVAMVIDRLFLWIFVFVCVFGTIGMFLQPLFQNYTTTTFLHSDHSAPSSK
Protocol: (§1) cDNA encoding human nAChR α4 and β2 subunits were cloned, and cRNA was prepared as previously described. A triple-point-mutated β2^m subunit with the mutations V136H, F144Q, and L146T was constructed as previously described.
(§2) This study was carried out in strict accordance with the Australian Code of Practice for the Care and Use of Animals for Scientific Purposes. The protocol for this specific study was approved by the Animal Ethics Committee of the University of Sydney (Protocol number: 2013/5915). All surgical procedures were carried out in under anesthesia induced by immersion in a tricaine solution to ameliorate suffering. […] Mature female Xenopus laevis frogs were anaesthetised with 0.17% tricaine (buffered with 0.06% sodium bicarbonate) for 15 minutes, after which the loss of righting reflex was confirmed before transferring on to ice where surgeries were performed. A small (1–2 cm) abdominal incision was made through both the skin and muscle layer with surgical knives. Ovary lobes were removed with a pair of forceps, and kept in oocyte releasing 2 (OR2) buffer (82.5 mM NaCl, 2 mM KCl, 1 mM MgCl2, 5 mM HEPES hemisodium; pH 7.4). The skin and muscle layer were sutured separately, and frogs were allowed to recover for six months before they were reselected for surgeries. A total of five recoverable surgeries with 6–12 months recovery periods between surgeries were performed on each frog to reduce the adverse effects of Xenopus transportation into Australia, as approved by the Animal Ethics Committee of the University of Sydney (Protocol number: 2013/5915) before a terminal surgery was performed, in which a lethal dose of tricaine (0.5%) was used. Briefly, lobes from ovaries of female adult X. laevis were removed and defolliculated to obtain isolated oocytes. Oocytes were injected with a total of ∼25 ng of cRNA encoding human WT receptor as shown earlier to express 3α4:2β2 and 2α4:3β2 [17], and incubated for 2–5 days at 15–18°C.
(§3) Oocytes were subjected to two-electrode voltage-clamp electrophysiological testing using a custom-built system where solutions were applied directly to the oocytes via a glass capillary tube placed in the vicinity of the cell. This ensured a solution exchange rate faster than two seconds. Ligand was applied for 30 sec and peak current amplitudes were measured. To minimise the effects of long desensitized states, the number of applications of ligand at each oocyte was minimized rather than performing full concentration-response curves on individual oocytes.
(§4) Concentration–response curves for Sazetidine-A and TC-2559 were fitted using GraphPad Prism 6 to a monophasic Hill equation with Hill Slope of 1: I=Imax(1/1+(EC50/A)) Where Imax is the maximum current, EC50 is the concentration that produces the half-maximal response and [A] is the concentration of ligand.
Concentration–response curves for ACh were fitted using GraphPad Prism 6 to a biphasic Hill equation with Hill slopes of 1: I=Imax*((Frac1/1+(EC50(1)/[A]))+(Frac2/1+(EC50(2)/[A]))) Where Frac1 and Frac2 are the fractions and EC50(1) and EC50(2) are the half-maximal concentrations of high and low-sensitivity phases of the concentration-response curves, respectively.
Ideally, single-channel recordings would be used to estimate the Po,max values; however this is technically highly challenging for α4β2 nAChRs due to channel rundown and desensitization. To overcome this, an alternate method utilizing co-application of ACh and NS206, a positive allosteric modulator (PAM), was used to estimate the maximum open probability (Est. Po,max) at 3α4:2β2 receptors. […] We have assumed that when both the positive allosteric modulator and native ligand ACh are bound, the probability of the receptor being opened is approaching one, and was previously successfully used for other members of LGICs.

3α4:2β2 nAChR [2] = biological target: T1, 3α4:2β2 nAChR; set-up: expressed in transfected cells; host or cells: Xenopus laevis oocytes injected with cRNA (α4:β2 ratio 4:1); method as in PMID 16720757, PMID 21795528; settings: 3α4:2β2 stoichiometry; cited from earlier work
3α4:2β2 nAChR [3] = biological target: T1, 3α4:2β2 nAChR; experiment: Linear kinetic models (Model 1, Model 2) of 3α4:2β2 receptor activation; settings: for Constant multiplier C (CE / CF): from change in EC50 and Po,max when NS9283 (10 μM) applied in addition to the agonist
From the text: To determine how binding at the α4-α4 site alters receptor transitions during activation, two simple linear kinetic models were used to describe receptor activation when two α4-β2 binding sites are occupied. For simplicity the binding of two ligands at α4-β2 sites is combined into a single step. The first model (Model 1) is a three-step model designed to determine whether the third ligand alters: (i) the binding affinity of ligands at the α4-β2 site (cooperativity); (ii) the transitions between closed and open states (gating) or (iii) the transitions between open and a distinct closed state in the presence of ligand (desensitization). The second model (Model 2) expanded the gating transitions to investigate whether a pre-activation (flipping) step is altered. We then determined which equilibrium constant was principally modulated in these models when NS9283 bound to the α4-α4 site potentiated the Saz-A or TC-2559 responses.
The open probability for the first model is given by (Fig 4A): PoCtrl=E.[A]/K+[A](1+E+E.D) (1) Where E is the gating constant, [A] is the agonist concentration, K is the dissociation constant of Saz-A or TC-2559, and D is the desensitizing constant. By rearranging Eq 1 to isolate [A]: PoCtrl=E/1+E+E.D/1+K/[A].(1+E+E.D) (2)
The open probability curve will fit to a Hill equation with a slope coefficient of one, since the ligand binding steps have been simplified by aggregating into a single transition. It follows from Eq 2 that the maximum open probability (when [A] approaches infinity) is given by: Po,maxCtrl=E/1+E+E.D (3) and the half-maximum effective concentration is: EC50Ctrl=K/1+E+E.D (4) It is apparent from Eq 3 that to determine the equilibrium constants for this kinetic model, the open probability (Po) of the receptor must be estimated by normalizing to the responses to ACh and NS206, rather than normalizing to the response of a saturating concentration of ACh.
The open probability in the presence of NS9283 ( Po.maxNS ; the superscript denotes when NS9283 is co-applied) and half-maximum effective concentration ( EC50NS ) can be described by substituting E with CE.E in Eqs 3 and 4 respectively. The value of CE can then be calculated from the ratios of the EC50 values and the maximum open probabilities in control and when potentiated by NS9283, as follows: EC50ctrl/Po,maxctrl=K/E (5) EC50NS/Po,maxNS=K/CE.E (6) CE=Po,maxNS/Po,maxctrl×EC50ctrl/EC50NS (7)
As NS9283 binds selectively to the α4-α4 site, we assumed that it has the same multiplier effect; regardless of which partial agonist is bound at the α4-β2 site. […] Equilibrium constants were then calculated using the following equations. Rearranging Eq 3: 1/Po.maxCtrl−1=1+D.E/E (8)
Rearranging to give D. D=CE(1/Po,maxNS−1)−(1/Po,maxctrl−1)/CE−1 (11)
Rearranging Eq 3 to give E. E=Po,maxctrl/(1−Po,maxctrl−D.Po,maxctrl) (12)
Rearranging Eqs 5 and 6 to give K K=E.EC50ctrl/Po,maxctrl=CE.E.EC50NS/Po,maxNS (13)
The open probability for this model is given by the following: Po=E.F.[A]/K+[A](1+F+E.F) (17)
Where K is the dissociation constant, F is the pre-activating equilibrium constant and E is the gating constant. It also follows that the maximum open probability is given by: Po,max=E.F/1+F+E.F (18)
Thus, both F and E will have an influence on the observed macroscopic efficacy. The half-maximum effective concentration is: EC50=K/1+F+E.F (19)
We investigated the possibility that NS9283 increases the pre-activation constant, F, by a factor, CF, in Model 2 (Fig 5B; Scheme 2).
By subtracting Eq 21 from Eq 22 and re-arranging in terms of E: E=CF−1/CF(1/Po,maxNS−1)−(1/Po,maxctrl−1) (23)
The value of E can then be calculated using Eq 23.

[4] = system: T2, 3α4:2β2^HQT nAChR (β2 V136H, F144Q, L146T); experiment: Two-electrode voltage-clamp electrophysiology in Xenopus oocytes, mutated 3α4:2β2^HQT receptor; format: cell-based, human; settings: for I/I1mM ACh: 3α4:2β2^HQT; for Activation of 3α4:2β2^HQT mutant receptors: receptor with three α4-α4-like interfaces
T2 construct: expressed in transfected cells; host or cells: Xenopus laevis oocytes injected with cRNA
Protocol: as §1, §2, §3
Nevertheless, a contribution to Saz-A and TC-2559 activation from binding at the α4-α4 interface cannot be excluded from these experiments. Therefore, Saz-A and TC-2559 were applied to mutated 3α4:2β2^HQT receptors where the α4-β2 binding site is abolished. […]

2α4:3β2 nAChR = biological target: T3, 2α4:3β2 nAChR (Homo sapiens, UniProt P17787+P43681); experiment: Two-electrode voltage-clamp electrophysiology in Xenopus oocytes, WT 2α4:3β2 receptor; format: cell-based; settings: for Agonist type: 2α4:3β2, relative to saturating ACh (1 mM)
T3 construct: expressed in transfected cells; host or cells: Xenopus laevis oocytes injected with cRNA (α4:β2 ratio 1:4)
T3 sequence (P43681 29-627 limits assumed): as the sequence (P43681 29-627 limits assumed) above
T3 sequence (P17787 26-502): as the sequence (P17787 26-502) above
Protocol: as §1, §2, §3, §4

[5] = read-out: K (binding equilibrium constant), Model-1, Model 1, 3α4:2β2
[6] = read-out: K (binding equilibrium constant), Model-2, Model 2, 3α4:2β2
[7] = 3α4:2β2, co-applied with NS9283 (10 μM)

Row | SMILES | Est Pomax (3α4:2β2 nAChR [1]; 3α4:2β2, ligand alone) | D (desensitized equilibrium constant), Model-1 (3α4:2β2 nAChR [3]; Model 1, 3α4:2β2) | E (gating equilibrium constant), Model-1 (3α4:2β2 nAChR [3]; Model 1, 3α4:2β2) | E (gating equilibrium constant), Model-2 (3α4:2β2 nAChR [3]; Model 2, 3α4:2β2) | F (flipping equilibrium constant), Model-2 (3α4:2β2 nAChR [3]; Model 2, 3α4:2β2) | Constant multiplier C (CE / CF) (3α4:2β2 nAChR [3]) | Kd (3α4:2β2 nAChR [3]; [5]) | Kd (3α4:2β2 nAChR [3]; [6]) | Decrease of EC50 value by co-application of NS9283 (3α4:2β2 nAChR [1]) | Increase of maximum response by co-application of NS9283 (3α4:2β2 nAChR [1]) | Est Pomax (3α4:2β2 nAChR [1]; [7]) | I/I1mM ACh (maximum response normalized to 1 mM ACh) (3α4:2β2 nAChR [1]; 3α4:2β2, ligand alone) | Agonist type (3α4:2β2 nAChR [1]) | I/I1mM ACh [4] | Activation of 3α4:2β2^HQT mutant receptors [4] | I/I1mM ACh (maximum response normalized to 1 mM ACh) (2α4:3β2 nAChR; 2α4:3β2, ligand alone) | Agonist type (2α4:3β2 nAChR) | also measured
1 | CC(=O)OCC[N+](C)(C)C [ACh, acetylcholine] | 51 ± 5% | – | – | – | – | – | – | – | – | – | – | – | – | – | – | – | – | Potency of α4-α4 binding site relative to α4-β2 binding site (less potent) (3α4:2β2 nAChR [2]): ~ 100 fold
2 | N#Cc1cccc(-c2nc(-c3cccnc3)no2)c1 [NS9283] | – | – | – | – | – | – | – | – | – | – | – | – | – | – | – | – | – | Constant multiplier C (CE / CF), averaged over Saz-A and TC-2559 (3α4:2β2 nAChR [3]; NS9283 potentiation of Saz-A and TC-2559 activation, averaged): 8.94
3 | OCCCCC#Cc1cncc(OC[C@@H]2CCN2)c1 [Saz-A, Sazetidine-A] | 9.1% and 9 ± 0.7% | 0.50 | 0.10 | 1.99 | 0.05 | 8.7 and 8.75 | 27 nM | 27 nM | 2 fold | 4.4 fold | 39% and 39 ± 1.5% | 18 ± 1.4% | partial agonists | 0* % | do not activate; also recorded: Neither Saz-A or TC-2559 activated | 108 ± 6% | full agonist | EC50 (3α4:2β2 nAChR [1]; 3α4:2β2, ligand alone, Hill co-efficient of one): 23 nM; EC50 (2α4:3β2 nAChR; 2α4:3β2, ligand alone, Hill co-efficient of one): 10 nM
4 | CCOc1cncc(/C=C/CCNC)c1 [TC-2559] | 20% and 20 ± 2% | 0.28 | 0.27 | 3.59 | 0.08 | 9.2 and 9.15 | 833 nM | 836 nM | 3.1 fold | 2.9 fold | 59% and 59 ± 1.5% | 41 ±4% | partial agonists | 0* % | do not activate; also recorded: Neither Saz-A or TC-2559 activated | 330 ± 10% | super agonist | Difference of EC50 values between 3α4:2β2 and 2α4:3β2 receptors (3α4:2β2 nAChR [1]; 3α4:2β2 vs 2α4:3β2): 5 fold
